We go through 20 compounds from patent US12319676B2, “Substituted amide compounds useful as farnesoid X receptor modulators” (BRISTOL-MYERS SQUIBB COMPANY, priority 2019, dated 2025).

pEC50: −log10 of the molar value.

In the assay the target is T1, human FXR (Homo sapiens, UniProt Q96RI1).
T1 construct: expressed in transfected cells; host or cells: HEK293 cells stably carrying a 5xGal4 response element-luciferase reporter, transiently transfected with pcDNA3.1-Gal4-FXR
T1 sequence (Q96RI1 262-486 limits assumed): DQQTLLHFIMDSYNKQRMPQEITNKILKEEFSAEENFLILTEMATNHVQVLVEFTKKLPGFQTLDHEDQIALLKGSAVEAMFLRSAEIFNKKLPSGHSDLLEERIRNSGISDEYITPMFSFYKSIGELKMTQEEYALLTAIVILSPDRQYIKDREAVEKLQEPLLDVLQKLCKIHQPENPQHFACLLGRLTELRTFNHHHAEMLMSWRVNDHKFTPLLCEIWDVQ
The assay is described as follows: transient human FXR/Gal4-luciferase reporter assay. The class given is cell-based. Particulars: Gal4-hFXR fusion construct, luciferase reporter in HEK293 cells; overnight incubation; response as percentage of 8 μM GW-4064 control. On the procedure:
The exemplified compounds of the present invention were tested in the transient human FXR/Gal4-luciferase reporter assay, and assay results were reported in Table 1 and Examples 1 to 3 together with other analytical data. A Gal4-hFXR fusion construct reporter system was used as the primary assay to characterize compound activity. A construct including 5 copies of the Gal4 promoter response element upstream of a firefly luciferase reporter cDNA was stably expressed in HEK293 cells. This reporter cell line was maintained in Dulbecco's Modified Eagle's medium (DMEM; Gibco) supplemented with 1% penicillin-streptomycin (P/S) solution, 500 μg/mL Zeocin and 10% charcoal/dextran-treated fetal bovine serum (cs-FBS) at 37° C. in a humidified 5% CO2 atmosphere. Another plasmid was constructed in which the human cytomegalovirus promoter in the pcDNA3.1 vector directs the expression of the cDNA encoding a fusion protein comprised of the DNA binding domain from the Gal4 transcription factor fused to the ligand binding domain from human FXR. The day prior to transfection, the reporter cells in culture are detached from the plate with trypsin and plated into a T75 flask at a sufficient density to achieve approximately 90% confluence the next morning. The transfection reagents are prepared by separately diluting 25 μg of the pcDNA3.1-Gal4-FXR plasmid into 1.87 mL of Opti-MEM (Thermo-Fisher), and 40 μL of Lipofectamine 2000 (Thermo-Fisher) into 1.87 mL of Opti-MEM, and then adding the diluted DNA solution into the diluted Lipofectamine 2000 solution and incubating at room temperature for 15-20 minutes. The mixture is further diluted with 10 mL of a solution comprised of DMEM, 10% cs-FBS, and 1% P/S immediately prior to transferring to the cells. The maintenance culture media is aspirated from the cells and the final transfection mixture is added before the cells are incubated overnight at 37° C. in a humidified 5% CO2 atmosphere. This protocol can be scaled up, and the transiently transfected cells can be cryopreserved in an assay-ready format. For compound testing, 100 nL of the compounds (serial dilutions in DMSO) are dispensed with an Echo acoustic dispenser (Labcyte) into the wells of a Corning/Costar clear bottom 384-well white plate. The transfected cells are harvested, counted, and diluted such that 10-25,000 cells in 25 μL are plated into each well of the 384-well compound assay plate. The compound-treated cells are incubated overnight at 37° C. in a humidified 5% CO2 atmosphere. The next morning 25 μL of Steady-Glo (Promega) are added to each well of the plate, the mixture is incubated for 15 min. with shaking, and luminescence is measured on an Envision (Perkin Elmer) plate reader. Background counts from cells treated with DMSO alone are subtracted from all raw counts, and the corrected values are converted to a percentage of the control response attained with 8 μM GW-4064.
Regarding `CC(C)(C)c1noc(C23CCC(CN(c4cccc(C#N)c4)C(=O)[C@H]4C[C@](O)(C(F)(F)F)C4)(CC2)CC3)n1` [Example 39, (1S,3S)-N-((4-(3-(tert-butyl)-1,2,4-oxadiazol-5-yl)bicyclo[2.2.2]octan-1-yl)methyl)-N-(3-cyanophenyl)-3-hydroxy-3-(trifluoromethyl)cyclobutane-1-carboxamide], the pEC50 was 6.25.

The compound `CC(C)(C)c1noc(C23CCC(CN(c4cccc(C#N)c4)C(=O)[C@H]4C[C@@](C)(O)C4)(CC2)CC3)n1` [Example 40, (1S,3S)-N-((4-(3-(tert-butyl)-1,2,4-oxadiazol-5-yl)bicyclo[2.2.2]octan-1-yl)methyl)-N-(3-cyanophenyl)-3-hydroxy-3-methylcyclobutane-1-carboxamide] had a pEC50 of 5.90.

The compound `CC(C)(C)c1noc(C23CCC(CN(C(=O)C4CC(F)(F)C4)c4cccc(C#N)c4)(CC2)CC3)n1` [Example 41, N-((4-(3-(tert-butyl)-1,2,4-oxadiazol-5-yl)bicyclo[2.2.2]octan-1-yl)methyl)-N-(3-cyanophenyl)-3,3-difluorocyclobutane-1-carboxamide] gave a pEC50 of 6.77.

The compound `CC(C)(C)c1noc(C23CCC(CN(C(=O)C4CCC(F)(F)CC4)c4cccc(C#N)c4)(CC2)CC3)n1` [Example 42, N-((4-(3-(tert-butyl)-1,2,4-oxadiazol-5-yl)bicyclo[2.2.2]octan-1-yl)methyl)-N-(3-cyanophenyl)-4,4-difluorocyclohexane-1-carboxamide] gave a pEC50 of 5.90.

Regarding `CC(C)(C)c1noc(C23CCC(CN(C(=O)C45CC(F)(C4)C5)c4cccc(P(C)(C)=O)c4)(CC2)CC3)n1` [Example 43, N-((4-(3-(tert-butyl)-1,2,4-oxadiazol-5-yl)bicyclo[2.2.2]octan-1-yl)methyl)-N-(3-(dimethylphosphoryl)phenyl)-3-fluorobicyclo[1.1.1]pentane-1-carboxamide], the pEC50 is 5.40.

In turn, `CC(C)(C)c1noc(C23CCC(CN(C(=O)C4CC(F)(F)C4)c4cccc(P(C)(C)=O)c4)(CC2)CC3)n1` [Example 44, N-((4-(3-(tert-butyl)-1,2,4-oxadiazol-5-yl)bicyclo[2.2.2]octan-1-yl)methyl)-N-(3-(dimethylphosphoryl)phenyl)-3,3-difluorocyclobutane-1-carboxamide] showed a pEC50 of 5.40.

As to `CC(C)(C)c1noc(C23CCC(CN(c4cccc(P(C)(C)=O)c4)C(=O)[C@H]4C[C@](O)(C(F)(F)F)C4)(CC2)CC3)n1` [Example 45, (1S,3S)-N-((4-(3-(tert-butyl)-1,2,4-oxadiazol-5-yl)bicyclo[2.2.2]octan-1-yl)methyl)-N-(3-(dimethylphosphoryl)phenyl)-3-hydroxy-3-(trifluoromethyl)cyclobutane-1-carboxamide], the pEC50 was 5.40.

With `CC(C)(C)c1noc(C23CCC(CN(C(=O)C4CCOCC4)c4cccc(P(C)(C)=O)c4)(CC2)CC3)n1` [Example 46, N-((4-(3-(tert-butyl)-1,2,4-oxadiazol-5-yl)bicyclo[2.2.2]octan-1-yl)methyl)-N-(3-(dimethylphosphoryl)phenyl)tetrahydro-2H-pyran-4-carboxamide], the pEC50 was 5.40.

`CC(C)(C)c1noc(C23CCC(CN(C(=O)C4CCS(=O)(=O)CC4)c4cccc(P(C)(C)=O)c4)(CC2)CC3)n1` [Example 47, N-((4-(3-(tert-butyl)-1,2,4-oxadiazol-5-yl)bicyclo[2.2.2]octan-1-yl)methyl)-N-(3-(dimethylphosphoryl)phenyl)tetrahydro-2H-thiopyran-4-carboxamide 1,1-dioxide] gave a negative-log EC50 (pEC50) of 5.40.

The compound `CC(F)(F)c1ccc(C23CCC(CN(C(=O)C45CC(F)(C4)C5)c4cccc(Br)c4)(CC2)CC3)nc1` [Example 48, N-(3-bromophenyl)-N-((4-(5-(1,1-difluoroethyl)pyridin-2-yl)bicyclo[2.2.2]octan-1-yl)methyl)-3-fluorobicyclo[1.1.1]pentane-1-carboxamide] gave a pEC50 of 6.54.

The compound `CC(F)(F)c1ccc(C23CCC(CN(C(=O)C45CC(F)(C4)C5)c4cccc(C#N)c4)(CC2)CC3)nc1` [Example 49, N-(3-cyanophenyl)-N-((4-(5-(1,1-difluoroethyl)pyridin-2-yl)bicyclo[2.2.2]octan-1-yl)methyl)-3-fluorobicyclo[1.1.1]pentane-1-carboxamide] had a pEC50 of 6.49.

For the compound `CC(F)(F)c1ccc(C23CCC(CN(c4cccc(C#N)c4)C(=O)[C@H]4C[C@@](C)(O)C4)(CC2)CC3)nc1` [Example 50, (1S,3S)-N-(3-cyanophenyl)-N-((4-(5-(1,1-difluoroethyl)pyridin-2-yl)bicyclo[2.2.2]octan-1-yl)methyl)-3-hydroxy-3-methylcyclobutane-1-carboxamide], the pEC50 was 5.93.

For the compound `CC(F)(F)c1ccc(C23CCC(CN(c4cccc(C#N)c4)C(=O)[C@H]4C[C@](O)(C(F)(F)F)C4)(CC2)CC3)nc1` [Example 51, (1S,3S)-N-(3-cyanophenyl)-N-((4-(5-(1,1-difluoroethyl)pyridin-2-yl)bicyclo[2.2.2]octan-1-yl)methyl)-3-hydroxy-3-(trifluoromethyl)cyclobutane-1-carboxamide], the pEC50 is 5.88.

In turn, `CCOc1cccc(N(CC23CCC(c4nc(C5CC5)no4)(CC2)CC3)C(=O)C23CC(F)(C2)C3)c1` [Example 52, N-((4-(3-cyclopropyl-1,2,4-oxadiazol-5-yl)bicyclo[2.2.2]octan-1-yl)methyl)-N-(3-ethoxyphenyl)-3-fluorobicyclo[1.1.1]pentane-1-carboxamide] showed a pEC50 of 6.99.

Compound `CCOc1cccc(N(CC23CCC(c4nc(C5CC5)no4)(CC2)CC3)C(=O)C2CC(F)(F)C2)c1` [Example 53, N-((4-(3-cyclopropyl-1,2,4-oxadiazol-5-yl)bicyclo[2.2.2]octan-1-yl)methyl)-N-(3-ethoxyphenyl)-3,3-difluorocyclobutane-1-carboxamide] gave a pEC50 of 6.36.

Compound `CCOc1cccc(N(CC23CCC(c4nc(C5CC5)no4)(CC2)CC3)C(=O)[C@H]2C[C@](O)(C(F)(F)F)C2)c1` [Example 54, N-((4-(3-cyclopropyl-1,2,4-oxadiazol-5-yl)bicyclo[2.2.2]octan-1-yl)methyl)-N-(3-ethoxyphenyl)-3-hydroxy-3-(trifluoromethyl)cyclobutane-1-carboxamide] had a pEC50 of 6.03.

For `CCOc1cccc(N(CC23CCC(c4nc(C5CC5)no4)(CC2)CC3)C(=O)C2CCOCC2)c1` [Example 55, N-((4-(3-cyclopropyl-1,2,4-oxadiazol-5-yl)bicyclo[2.2.2]octan-1-yl)methyl)-N-(3-ethoxyphenyl)tetrahydro-2H-pyran-4-carboxamide], the pEC50 is 6.49.

`CCOc1cccc(N(CC23CCC(c4nc(C5CC5)no4)(CC2)CC3)C(=O)C2CCS(=O)(=O)CC2)c1` [Example 56, N-((4-(3-cyclopropyl-1,2,4-oxadiazol-5-yl)bicyclo[2.2.2]octan-1-yl)methyl)-N-(3-ethoxyphenyl)tetrahydro-2H-thiopyran-4-carboxamide 1,1-dioxide] showed a pEC50 of 5.40.

`COc1cccc(N(CC23CCC(c4nc(C5CC5)no4)(CC2)CC3)C(=O)[C@H]2C[C@](O)(C(F)(F)F)C2)c1` [Example 57, (1S,3S)—N-((4-(3-cyclopropyl-1,2,4-oxadiazol-5-yl)bicyclo[2.2.2]octan-1-yl)methyl)-3-hydroxy-N-(3-methoxyphenyl)-3-(trifluoromethyl)cyclobutane-1-carboxamide]: the pEC50 is 6.52.

On to `COc1cccc(N(CC23CCC(c4nc(C5CC5)no4)(CC2)CC3)C(=O)C23CC(F)(C2)C3)c1` [Example 58, N-((4-(3-cyclopropyl-1,2,4-oxadiazol-5-yl)bicyclo[2.2.2]octan-1-yl)methyl)-3-fluoro-N-(3-methoxyphenyl)bicyclo[1.1.1]pentane-1-carboxamide], for which the pEC50 was 6.46.

The term pEC50 denotes −log10 of the EC50, conventionally taken in molar units. High values mean a low EC50, low ones a high EC50.
